Experimental data published in patent US7674909B2, “Tetrahydroquinoline derivatives and their use as FSH receptor modulators” (N.V. Organon, priority 2002, dated 2010).
pEC50: −log10 of the molar value.

Biological target: T1, human FSH receptor (Homo sapiens, UniProt P23945)
T1 construct: expressed in transfected cells; host or cells: Chinese Hamster Ovary (CHO) cells, stably transfected, cotransfected with a CRE-luciferase reporter
T1 sequence (P23945 18-695): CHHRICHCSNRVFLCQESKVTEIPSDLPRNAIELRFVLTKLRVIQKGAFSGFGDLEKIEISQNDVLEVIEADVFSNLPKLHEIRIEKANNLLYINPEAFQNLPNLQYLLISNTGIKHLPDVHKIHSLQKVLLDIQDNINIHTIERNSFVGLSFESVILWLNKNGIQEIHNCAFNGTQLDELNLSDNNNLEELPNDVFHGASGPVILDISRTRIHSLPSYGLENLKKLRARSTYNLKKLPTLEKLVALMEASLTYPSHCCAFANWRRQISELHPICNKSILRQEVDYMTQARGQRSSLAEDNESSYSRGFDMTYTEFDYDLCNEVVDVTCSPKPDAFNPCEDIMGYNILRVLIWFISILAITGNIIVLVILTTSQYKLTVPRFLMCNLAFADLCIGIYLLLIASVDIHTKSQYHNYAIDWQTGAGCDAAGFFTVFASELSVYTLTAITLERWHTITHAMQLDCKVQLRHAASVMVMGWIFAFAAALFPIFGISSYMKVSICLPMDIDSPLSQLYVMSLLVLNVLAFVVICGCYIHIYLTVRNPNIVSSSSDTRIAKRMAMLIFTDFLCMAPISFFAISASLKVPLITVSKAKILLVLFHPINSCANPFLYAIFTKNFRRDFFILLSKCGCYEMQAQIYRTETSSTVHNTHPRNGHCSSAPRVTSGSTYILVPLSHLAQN
Assay: CHO-FSH in vitro bioactivity (CRE-luciferase reporter, agonistic or antagonistic set-up)
Assay type: cell-based
Settings: CHO cells stably transfected with human FSH receptor and CRE/luciferase reporter; in either an agonistic or an antagonistic (rec-hFSH 10 mU/ml) assay set-up or both / in at least one of the assays; read-out: EC50 (IC50)
Method: FSH activity of compounds were tested in Chinese Hamster Ovary (CHO) cells stably transfected with the human FSH receptor and cotransfected with a cAMP responsive element (CRE)/promotor directing the expression of a firefly luciferase reporter gene. Binding of ligand to the Gs-coupled FSH receptor will result in an increase of cAMP, which in turn will induce an increased transactivation of the luciferase reporter construct. To test antagonistic properties recombinant FSH in a concentration that induces approximately 80% of the maximal stimulation of cAMP accumulation in the absence of test compound was added (rec-hFSH; 10 mU/ml). The luciferase signal was quantified using a luminescence counter. For test compounds, EC50 values (concentration of test compound causing half-maximal (50%) stimulation or reduction) were calculated. For that purpose the software program GraphPad PRISM, version 3.0 (GraphPad software Inc., San Diego) was used.

| SMILES | pEC50 |
| --- | --- |
| CC(=O)N1c2ccc(NC(=O)c3ccc(-c4ccccc4)cc3)cc2C(C)(c2ccc(OCc3ccncc3)cc2)CC1(C)C (stereo not drawn) [Example 7, Biphenyl-4-carboxylic acid {1-acetyl-2,2,4-trimethyl-4-[4-(pyridin-4-ylmethoxy)-phenyl]-1,2,3,4-tetrahydro-quinolin-6-yl}-amide] | > 7.00 |
| CC(=O)N1c2ccc(NC(=O)c3ccc(C(C)(C)C)cc3)cc2C(C)(c2ccc(OCCN3CCOCC3)cc2)CC1(C)C (stereo not drawn) [Example 37, N-{1-Acetal-2,2,4-trimethyl-4-[4-(2-morpholin-4-ethoxy)-phenyl]-1,2,3,4-tetrahydro-quinolin-6-yl}-4-tert-butyl-benzamide] | > 7.00 |
| CC(=O)N1c2ccc(NC(=O)c3ccc(-c4ccccc4)cc3)cc2C(C)(c2ccc(OCc3ccccn3)cc2)CC1(C)C (stereo not drawn) [Example 4, Biphenyl-4-carboxylic acid {1-acetyl-2,2,4-trimethyl-4-[4-(pyridin-2-ylmethoxy)-phenyl]-1,2,3,4-tetrahydro-quinolin-6-yl}-amide] | > 7.00 |
| CC(=O)N1c2ccc(NC(=O)c3ccc(N(C)C)cc3)cc2C(C)(c2ccc(OCCN3CCOCC3)cc2)CC1(C)C (stereo not drawn) [Example 41, N-{1-Acetyl-2,2,4-trimethyl-4-[4-(2-morpholin-4-yl-ethoxy)-phenyl]-1,2,3,4-tetrahydro-quinolin-6-yl}-4-dimethylamino-benzamide] | > 7.00 |
| CC(=O)N1c2ccc(NC(=O)c3ccc(-c4ccccc4)cc3)cc2C(C)(c2ccc(OCC(=O)NCc3ccco3)cc2)CC1(C)C (stereo not drawn) [Example 16] | > 7.00 |
| CC(=O)N1c2ccc(NC(=O)c3ccc(-c4ccccc4)cc3)cc2C(C)(c2ccc(OCCCN3CCOCC3)cc2)CC1(C)C (stereo not drawn) [Example 3, Biphenyl-4-carboxylic acid {1-acetyl-2,2,4-trimethyl-4-[4-(3-morpholin-4-yl-propoxy)-phenyl]-1,2,3,4-tetrahydro-quinolin-6-yl}-amide] | > 7.00 |

Now from value to compound:

| pEC50 | SMILES |
| --- | --- |
| > 7.00 | CC(=O)N1c2ccc(NC(=O)c3cccc(C(F)(F)F)c3)cc2C(C)(c2ccc(OCCN3CCOCC3)cc2)CC1(C)C (stereo not drawn) [Example 42, N-{1-Acetyl-2,2,4-trimethyl-4-[4-(2-morpholin-4-yl-ethoxy)-phenyl]-1,2,3,4-tetrahydro-quinolin-6-yl}-3-trifluoromethyl-benzamide] |
| > 7.00 | CC(=O)N1c2ccc(NC(=O)c3ccc(Br)cc3)cc2C(C)(c2ccc(OCCN3CCOCC3)cc2)CC1(C)C (stereo not drawn) [Example 39, N-{1-Acetyl-2,2,4-trimethyl-4-[4-(2-morpholin-4-yl-ethoxy)-phenyl]-1,2,3,4-tetrahydro-quinolin-6-yl}-4-bromo-benzamide] |
| > 7.00 | CC(=O)N1c2ccc(NC(=O)c3ccccc3)cc2C(C)(c2ccc(OCCN3CCOCC3)cc2)CC1(C)C (stereo not drawn) [Example 36, N-{1-Acetyl-2,2,4-trimethyl-4-[4-(2-morpholin-4-yl-ethoxy)-phenyl]-1,2,3,4-tetrahydro-quinolin-6-yl}-benzamide] |
